# Experimental data reported in patent publication US4820695A, “C-20-dihydro-deoxy-(cyclic amino)-derivatives of macrolide antibiotics” (priority 1987, dated 1989).
# Like-named read-outs stand apart in the source and are kept apart here.
# Tests used:
# [1] = tested on: Streptococcus pyogenes C203; assay: ED50 in mice experimentally infected with S. pyogenes C203 (Table XI); type: in vivo; conditions: doses given 1 and 4 hours postinfection
# Description: The C-20 modified derivatives of this invention have shown in vivo antimicrobial activity against experimentally-induced infections in laboratory animals. When two doses of test compound were administered to mice experimentally infected with S. pyogenes C203, the activity observed was measured as an ED50 value [effective dose in mg/kg to protect 50% of the test animals: see Warren Wick, et al., J. Bacteriol. 81, 233-235 (1961)].
# ^a mg/kg × 2; doses given 1 and 4 hours postinfection
# [2] = tested on: Mycoplasma hyopneumoniae S5972; assay: MIC, broth-dilution microtiter test (Table X); type: cell-based; conditions: Mesomycoplasma hyopneumoniae, read-out: MIC
# Description: (§1) The MIC's in Table X were obtained using conventional broth-dilution microtiter tests.
# [3] = tested on: Pasteurella multocida 60A; assay: MIC, broth-dilution microtiter test (Table X); type: cell-based; conditions: Avian isolate, read-out: MIC
# Description: as §1
# [4] = tested on: Mycoplasma synoviae 40A; assay: MIC, broth-dilution microtiter test (Table X); type: cell-based; conditions: Mycoplasmopsis synoviae, read-out: MIC
# Description: as §1
# [5] = tested on: Mycoplasma hyorhinis 29E; assay: MIC, broth-dilution microtiter test (Table X); type: cell-based; conditions: read-out: MIC
# Description: as §1
# [6] = tested on: Staphylococcus aureus; assay: MIC, broth-dilution microtiter test (Table X); type: cell-based; conditions: read-out: MIC
# Description: as §1
# [7] = tested on: Pasteurella hemolytica 22C; assay: MIC, broth-dilution microtiter test (Table X); type: cell-based; conditions: read-out: MIC
# Description: as §1
# [8] = tested on: Mycoplasma gallisepticum 29C; assay: MIC, broth-dilution microtiter test (Table X); type: cell-based; conditions: Mycoplasmoides gallisepticum, read-out: MIC
# Description: as §1
# [9] = tested on: Pasteurella multocida 17E; assay: MIC, broth-dilution microtiter test (Table X); type: cell-based; conditions: Bovine isolate, read-out: MIC
# Description: as §1
# [10] = tested on: Streptococcus sp. 19F; assay: MIC, broth-dilution microtiter test (Table X); type: cell-based; conditions: read-out: MIC
# Description: as §1
# [11] = tested on: Staphylococcus aureus S13E; assay: MIC, standard agar-dilution assay (Table IX); type: cell-based; conditions: Staphylococcus aureus, S13E
# [12] = tested on: Haemophilus influenzae C.L.; assay: MIC, standard agar-dilution assay (Table IX); type: cell-based; conditions: Ampicillin-sensitive strain, read-out: MIC
# [13] = tested on: Staphylococcus epidermidis 222; assay: MIC, standard agar-dilution assay (Table IX); type: cell-based; conditions: read-out: MIC
# [14] = tested on: Staphylococcus aureus V41; assay: MIC, standard agar-dilution assay (Table IX); type: cell-based; conditions: Staphylococcus aureus V41, Penicillin-resistant strain, read-out: MIC
# [15] = tested on: Escherichia coli EC14; assay: MIC, standard agar-dilution assay (Table IX); type: cell-based; conditions: read-out: MIC
# [16] = tested on: Staphylococcus epidermidis EPI1; assay: MIC, standard agar-dilution assay (Table IX); type: cell-based
# [17] = tested on: Escherichia coli TEM; assay: MIC, standard agar-dilution assay (Table IX); type: cell-based; conditions: read-out: MIC
# [18] = tested on: Streptococcus Group D X66; assay: MIC, standard agar-dilution assay (Table IX); type: cell-based; conditions: read-out: MIC
# [19] = tested on: Streptococcus pneumoniae Park I; assay: MIC, standard agar-dilution assay (Table IX); type: cell-based
# [20] = tested on: Staphylococcus aureus X400; assay: MIC, standard agar-dilution assay (Table IX); type: cell-based; conditions: Staphylococcus aureus X400, Methicillin-resistant strain, read-out: MIC
# [21] = tested on: Staphyloccus aureus X1.1; assay: MIC, standard agar-dilution assay (Table IX); type: cell-based, Staphylococcus aureus; conditions: Staphylococcus aureus, read-out: MIC
# [22] = tested on: Streptococcus pyogenes C203; assay: MIC, standard agar-dilution assay (Table IX); type: cell-based; conditions: read-out: MIC
# [23] = tested on: Haemophilus influenzae 76; assay: MIC, standard agar-dilution assay (Table IX); type: cell-based; conditions: Haemophilus influenzae 76, Ampicillin-resistant strain, read-out: MIC
# [24] = tested on: Klebsiella X26; assay: MIC, standard agar-dilution assay (Table IX); type: cell-based; conditions: read-out: MIC
# [25] = tested on: Escherichia coli N10; assay: MIC, standard agar-dilution assay (Table IX); type: cell-based; conditions: read-out: MIC
# [26] = tested on: Streptococcus Group D 2041; assay: MIC, standard agar-dilution assay (Table IX); type: cell-based; conditions: GROUPD2041, read-out: MIC
# [27] = Titratable groups in 66% aqueous DMF (Tables XIV-XVI); type: physicochemical
# Description: ^c Run in 66% aqueous DMF
# ^d Run in 66% aqueous DMF
# [28] = Streptococcus pyogenes, C203, Oral, read-out: ED50
# [29] = Streptococcus pyogenes, C203, sc, Subcutaneous, read-out: ED50
# [30] = Staphylococcus epidermidis EPI1, agar-dilution, read-out: MIC
# [31] = Streptococcus pneumoniae Park I, agar-dilution, read-out: MIC
# [32] = Titratable groups (first value)
Compound,MIC [2] [µg/mL],MIC [3] [µg/mL],MIC [4] [µg/mL],MIC [5] [µg/mL],MIC [6] [µg/mL],MIC [7] [µg/mL],MIC [11] [µg/mL],MIC [12] [µg/mL],MIC [13] [µg/mL],MIC [14] [µg/mL],MIC [15] [µg/mL],MIC [17] [µg/mL],MIC [18] [µg/mL],MIC [20] [µg/mL],MIC [21] [µg/mL],MIC [22] [µg/mL],MIC [23] [µg/mL],MIC [24] [µg/mL],MIC [25] [µg/mL],MIC [26] [µg/mL],further results
CCC1OC(=O)CC(O)C(C)C(OC2OC(C)C(O)C(N(C)C)C2O)C(CCN2CC(C)CC(C)C2)CC(C)C(=O)C=CC(C)=CC1COC1OC(C)C(O)C(OC)C1OC (racemic) [Compound D35],,,,,,,,,,,,,,,,,,,,,ED50 ([1]; Oral): 10.93 mg/kg × 2; ED50 ([1]; Subcutaneous): 0.88 mg/kg × 2
"CCC1OC(=O)CC(O)C(C)C(OC2OC(C)C(OC3CC(C)(O)C(O)C(C)O3)C(N(C)C)C2O)C(CCN2CC3CCC(CC3)C2)CC(C)C(=O)C=CC(C)=CC1COC1OC(C)C(O)C(OC)C1OC (stereo not drawn) [Compound T13, 20-DH-DO-20-(3-azabicyclo[3.2.2]nonan-3-yl)tylosin]",25,> 50,1.56,> 50,6.25,50,4,128,2,4,> 128,> 128,128,8,4,4,128,> 128,> 128,> 128,"MIC [8]: 1.56 µg/mL; MIC [9]: > 50 µg/mL; MIC [10]: 50 µg/mL; MIC ([16]; Staphylococcus epidermidis, EPI1): 4 µg/mL; MIC ([19]; Streptococcus pneumoniae): 16 µg/mL; ED50 [1, 28]: 30 mg/kg; ED50 [1, 29]: > 10 mg/kg"
"CCC1OC(=O)CC(O)C(C)C(OC2OC(C)CC(N(C)C)C2O)C(CCN2CCCCCC2)CC(C)C(=O)C=CC(C)=CC1COC1OC(C)C(O)C(OC)C1OC (stereo not drawn) [Compound D5a, 20-DH-DO-20-(Hexahydroazepin-1-yl)-4'-deoxydesmycosin]",0.195,3.12,0.195,3.12,0.39,3.12,0.5,8,0.25,0.5,128,8,2,1,0.5,0.25,8,8,64,2,"MIC [8]: 0.78 µg/mL; MIC [9]: 6.25 µg/mL; MIC [10]: 0.78 µg/mL; MIC [16, 30]: 0.5 µg/mL; MIC [19, 31]: 0.25 µg/mL; ED50 [1, 28]: 34 mg/kg; ED50 [1, 29]: 1.5 mg/kg"
"CCC1OC(=O)CC(O)C(C)C(OC2OC(C)C(OC3CC(C)(O)C(O)C(C)O3)C(N(C)C)C2O)C(CCN2CCCCCCC2)CC(C)C(=O)C=CC(C)=CC1COC1OC(C)C(O)C(O)C1OC (stereo not drawn) [Compound M4, 20-DH-DO-20-(octahydroazocin-1-yl)macrocin]",6.25,> 50,6.25,> 50,12.5,> 50,4,128,2,4,> 128,> 128,> 128,8,4,2,128,> 128,> 128,> 128,"MIC [8]: 3.12 µg/mL; MIC [9]: > 50 µg/mL; MIC [10]: 12.5 µg/mL; pKa ([27]; 66% aqueous DMF, read-out: Titratable groups): 9.25; pKa ([27]; 66% aqueous DMF, read-out: Titratable groups (first value)): 6.9; MIC [16, 30]: 4 µg/mL; MIC [19, 31]: 32 µg/mL"
"CCC1OC(=O)CC(O)C(C)C(OC2OC(C)C(OC3CC(C)(O)C(O)C(C)O3)C(N(C)C)C2O)C(CCN2CCCCCCC2)CC(C)C(=O)C=CC(C)=CC1COC1OC(C)C(O)C(OC)C1OC (stereo not drawn) [Compound T6, 20-DH-DO-20-(octahydroazocin-1-yl)tylosin]",12.5,> 50,0.78,> 50,12.5,50,4,64,2,4,> 128,> 128,> 128,8,4,2,> 128,> 128,> 128,> 128,"MIC [8]: 3.12 µg/mL; MIC [9]: > 50 µg/mL; MIC [10]: 50 µg/mL; MIC [16, 30]: 4 µg/mL; MIC [19, 31]: 8 µg/mL; ED50 [1, 28]: 44 mg/kg; ED50 [1, 29]: > 10 mg/kg"
"CCC1OC(=O)CC(O)C(C)C(OC2OC(C)C(O)C(N(C)C)C2O)C(CCN2CCC(O)CC2)CC(C)C(=O)C=CC(C)=CC1COC1OC(C)C(O)C(OC)C1OC (stereo not drawn) [Compound D3, 20-DH-DO-20-(4-hydroxypiperidin-1-yl)desmycosin]",6.25,50,6.25,50,12.5,50,8,64,4,8,> 128,> 128,128,16,8,1,64,64,> 128,32,"MIC [8]: 25 µg/mL; MIC [9]: 50 µg/mL; MIC [10]: 12.5 µg/mL; pKa ([27]; Titratable groups): 8.7; pKa [27, 32]: 7.1; MIC [16, 30]: 8 µg/mL; MIC [19, 31]: 8 µg/mL"
"CCC1OC(=O)CC(O)C(C)C(OC2OC(C)C(O)C(N(C)C)C2O)C(CCN2CCC(N3CCCCC3)CC2)CC(C)C(=O)C=CC(C)=CC1COC1OC(C)C(O)C(OC)C1OC (stereo not drawn) [Compound D13, 20-DH-DO-20-[(4-piperidino)piperidin-1-yl]desmycosin]",3.12,12.5,1.56,50,3.12,12.5,1,16,0.25,1,> 128,> 128,2,1,0.5,2,8,16,> 128,2,"MIC [8]: 6.25 µg/mL; MIC [9]: 12.5 µg/mL; MIC [10]: 6.25 µg/mL; pKa ([27]; Titratable groups): 9.2; pKa [27, 32]: 6; MIC [16, 30]: 1 µg/mL; MIC [19, 31]: 2 µg/mL"
"CCC1OC(=O)CC(O)C(C)C(OC2OC(C)C(O)C(N(C)C)C2O)C(CCN2CCCC(C)(C)C2)CC(C)C(=O)C=CC(C)=CC1COC1OC(C)C(O)C(OC)C1OC (stereo not drawn) [Compound D40, 20-DH-DO-20-(3,3-dimethylpiperidin-1-yl)desmycosin]",,,,,,,0.5,4,0.25,0.5,64,16,4,0.5,0.5,0.25,8,16,64,8,"MIC [16, 30]: 0.5 µg/mL; MIC [19, 31]: 2 µg/mL"
"CCC1OC(=O)CC(O)C(C)C(OC2OC(C)C(O)C(N(C)C)C2O)C(CCN2CCCC(C(=O)N(CC)CC)C2)CC(C)C(=O)C=CC(C)=CC1COC1OC(C)C(O)C(OC)C1OC (stereo not drawn) [Compound D15, 20-DH-DO-20-[3-(N,N-diethylcarbamoyl)piperidin-1-yl]desmycosin]",3.12,12.5,1.56,> 50,6.25,25,2,32,1,2,> 128,64,32,4,2,0.5,32,32,> 128,32,"MIC [8]: 3.12 µg/mL; MIC [9]: 12.5 µg/mL; MIC [10]: 12.5 µg/mL; pKa ([27]; Titratable groups): 8.6; pKa [27, 32]: 7.4; MIC [16, 30]: 2 µg/mL; MIC [19, 31]: 1 µg/mL"
